From patent US10947263B2, “Cyclic dinucleotides as anticancer agents” (BRISTOL-MYERS SQUIBB COMPANY, priority 2017, dated 2021)
Where two headings read alike, the source gives them in different places.

How the values were obtained:
[1] = system: STING / IRF pathway in THP1-Dual cells; assay: STING THP1 Reporter Assay, IRF pathway (secreted Lucia luciferase, QUANTI-Luc); format: cell-based; details: 10% human plasma, 100% activation = 100 μM cGAMP, luciferase readout, read-out: THP1 Reporter Assays EC50 IRF3
From the text: (§1) THP1-Dual™ cells were derived from the human THP-1 monocyte cell line by stable integration of two inducible reporter constructs. To this end, THP1-Dual™ cells allow the simultaneous study of the […], by monitoring the activity of SEAP, and the IRF pathway by assessing the activity of a secreted luciferase (Lucia). Both reporter proteins are readily measurable in the cell culture supernatant when using QUANTI-Blue™, a SEAP detection reagent, and QUANTI-Luc™, a luciferase detection reagent.
(§2) THP1-Dual™ cells induce the activation of NF-κB in response to STING agonists. They also trigger the IRF pathway upon stimulation with STING agonists, such as cGAMP. Here, the THP-1-Dual cells were used to assess STING binders for function on the cellular level.
(§3) Serial dilutions of compounds in DMSO were added to low volume 384 well plates at 100 nl/well using an ECHO acoustic dispenser (Labcyte, model 550) to achieve final starting concentration of 100 μM in cell suspension. THP-1 Dual™ STING reporter cells (Invivogen, Dual cells cat #THPD-nfis) were added to the plates with compounds at 15,000 cells in 10 μL per well in RPMI media (Gibco, cat #11875) containing 10% human plasma in a low volume 384-well black wall clear bottom tissue culture plate (Corning, cat #3542) for SEAP assay and low volume solid white plate (Corning, cat #3826) for luciferase assay. One column of the plate was reserved for treatment with cGAMP at 100 μM for 100% activation calculation and one column for no treatment (DMSO only) for baseline activation. Plates were then incubated in 37 OC incubator at 5% CO2 for 20 hours.
(§4) In the SEAP assay, […] 2× QuantiBlue (Invivogen, cat #Rep-qb2) is added to 384 well black plates seeded with THP1 cells and incubated at 37° C. for 2 hours. Plates were read on the Envision (Perkin Elmer) at 620 nm wavelength (OD620). In the luciferase assay, 5 μl of Quantiluc (Invivogen, Rep-qlc2) is added to white 384 well plates seeded with THP1 cells and read at 5 minutes on the Envision (Perkin Elmer) using a luminescence protocol (RLU). For both cell lines, 100% activation was determined by value (RLU) of THP-1 Dual STING cells stimulated with 100 μM cGAMP (Invivogen, cat #TLRL-NACGA23-5).

[2] = target: T1, STING AQ (His-TVMV-S-hSTING(155-341)-G230A-R293Q) (Homo sapiens, UniProt Q86WV6, G230A/H232R/R293Q); assay: STING HTRF binding assay (time resolved FRET competition), STING AQ; details: 20 nM His-tagged STING AQ cytoplasmic domain, 40 nM fluorescein-labeled cGAMP analog probe, one hour; read-out: HTRF Binding Assays IC50 AQ
T1 construct: STING AQ: His-TVMV-S-hSTING(155-341)-G230A-R293Q
Description: (§5) A time resolved FRET-based competition binding assay was used to assess test article binding to STING WT and STING AQ. His-tagged STING cytoplasmic domain (WT or AQ) at a concentration of 20 nM was incubated with 2.5 nM Tb-labeled anti-His antibody, test compound, and fluorescein-labeled cGAMP analog probe (BioLog cat. no. C195) at a concentration of 200 nM (STING WT) or 40 nM (STING AQ) in PBS containing 0.005% Tween-20 and 0.1% BSA for one hour. Fluorescence at 495 nm and 520 nm was measured using an EnVision microplate reader to quantify FRET between Tb-labeled anti-His antibody and fluorescein-labeled probe. Background was defined as the signal obtained in the absence of STING protein, and background subtracted FRET ratios were normalized to the maximum signal obtained in the absence of test compound. These values were converted to a percent inhibition. Percent inhibition was determined for test compounds at 11 concentrations. The IC50, defined as the concentration of competing test compound needed to reduce specific binding of the probe by 50%, was calculated using the 4 parameter logistic equation to fit the data
STING AQ: His-TVMV-S-hSTING(155-341)-G230A-R293Q • […] […] […] […] LRQEEKEEV (SEQ ID NO:2)

[3] = system: STING / NF-κB pathway in THP1-Dual cells; assay: STING THP1 Reporter Assay, NF-κB pathway (SEAP, QUANTI-Blue); format: cell-based; details: 10% human plasma, 100% activation = 100 μM cGAMP, SEAP readout, read-out: THP1 Reporter Assays EC50 NFkB
From the text: as §1, §2, §3, §4

[4] = target: T2, STING WT (His-TVMV-S-hSTING(155-341)-H232R) (Homo sapiens, UniProt Q86WV6, H232R); assay: STING HTRF binding assay (time resolved FRET competition), STING WT; details: 20 nM His-tagged STING WT cytoplasmic domain, 200 nM fluorescein-labeled cGAMP analog probe, one hour; read-out: HTRF Binding Assays IC50 WT
T2 construct: STING WT: His-TVMV-S-hSTING(155-341)-H232R
Description: as §5
STING WT: His-TVMV-S-hSTING(155-341)-H232R • […] […] […] […] LRQEEKEEV (SEQ ID NO:1)

T1 sequence (Q86WV6 with tags, fused parts or gaps G230A/H232R/R293Q): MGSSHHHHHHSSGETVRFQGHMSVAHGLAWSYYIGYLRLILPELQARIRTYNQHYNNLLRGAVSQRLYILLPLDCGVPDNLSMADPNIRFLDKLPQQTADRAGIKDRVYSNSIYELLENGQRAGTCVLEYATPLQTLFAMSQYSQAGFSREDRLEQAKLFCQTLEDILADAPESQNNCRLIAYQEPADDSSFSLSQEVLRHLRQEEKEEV
T2 sequence (Q86WV6 with tags, fused parts or gaps H232R): as the sequence (Q86WV6 with tags, fused parts or gaps G230A/H232R/R293Q) above, with A99G, Q162R counted along it

| EC50 ([1]; 20 hours) | IC50 [2] | EC50 ([3]; 20 hours) | IC50 [4] | EC50 ([1]; Homo sapiens, THP1-Dual, 20 h) | EC50 ([3]; Homo sapiens, THP1-Dual, 20 h) | SMILES |
| --- | --- | --- | --- | --- | --- | --- |
| 21.1 µM | 20 nM | 34.6 µM | 150 nM | – | – | Nc1ncnc2c1ncn2[C@@H]1O[C@@H]2COP(=O)(S)O[C@@H]3[C@H](F)[C@@H](COP(=O)(S)O[C@H]2[C@H]1F)O[C@H]3n1nnc2c([N+](=O)[O-])cccc21 (single isomer, unassigned) [Example 11-4] |
| 1.2 µM | 10 nM | 4.9 µM | 70 nM | – | – | Nc1ncnc2c1ncn2[C@@H]1O[C@@H]2COP(=O)(S)O[C@@H]3[C@H](F)[C@@H](COP(=O)(S)O[C@H]2[C@H]1F)O[C@H]3n1nnc2c(N)cccc21 (single isomer, unassigned) [Example 13-1] |
| – | 10 nM | – | 30 nM | 3.5 µM | 6.7 µM | NC(=O)c1cccc2c1nnn2[C@@H]1O[C@@H]2COP(=O)(O)O[C@H]3[C@@H](F)[C@H](n4cnc5c(N)ncnc54)O[C@@H]3COP(=O)(O)O[C@@H]1[C@@H]2F [Example 3, 1-[(1S,6R,8R,9R,10R,15R, 17R,18R)-8-(6-amino-9H-purin-9-yl)-9,18-difluoro-3,12-dihydroxy-3,12-dioxo-2,4,7,11,13,16-hexaoxa-3λ^5,12λ^5-diphosphatricyclo [13.2.1.0^6,^10]octadecan-17-yl]-1H-1,2,3-benzotriazole-4-carboxamide] |
| 1.4 µM | 10 nM | 4.1 µM | 20 nM | – | – | NC(=O)c1cccc2c1nnn2[C@@H]1O[C@@H]2COP(=O)(O)O[C@H]3[C@@H](F)[C@H](n4cnc5c(N)ncnc54)O[C@@H]3COP(=O)(S)O[C@@H]1[C@@H]2F (single isomer, unassigned) [Example 6-1] |
| 1.2 µM | 2 nM | 2.1 µM | 10 nM | – | – | Nc1ncnc2c1ncn2[C@@H]1O[C@@H]2COP(=O)(S)O[C@@H]3[C@H](F)[C@@H](COP(=O)(S)O[C@H]2[C@H]1F)O[C@H]3n1nnc2c([N+](=O)[O-])cccc21 (single isomer, unassigned) [Example 11-1] |
| 12.7 µM | 10 nM | 73.9 µM | 210 nM | – | – | NC(=O)c1cccc2c1nnn2[C@@H]1O[C@@H]2COP(=O)(O)O[C@H]3[C@@H](F)[C@H](n4cnc5c4ncn4ccnc54)O[C@@H]3COP(=O)(S)O[C@@H]1[C@@H]2F (single isomer, unassigned) [Example 16-2] |
| 2.2 µM | 10 nM | 7.7 µM | 90 nM | – | – | NC(=O)c1cccc2c1nnn2[C@@H]1O[C@@H]2COP(=O)(O)O[C@H]3[C@@H](F)[C@H](n4cnc5c4ncn4ccnc54)O[C@@H]3COP(=O)(S)O[C@@H]1[C@@H]2F (single isomer, unassigned) [Example 16-1] |
| – | 10 nM | – | 50 nM | 3.3 µM | 11.7 µM | O=[N+]([O-])c1cccc2c1nnn2[C@@H]1O[C@@H]2COP(=O)(S)O[C@H]3[C@@H](F)[C@H](n4cnc5c4ncn4ccnc54)O[C@@H]3COP(=O)(S)O[C@@H]1[C@@H]2F (stereo partly drawn) [Example 14-1, (1S,6R,8R,9R,10R,15R,17R,18R)-9,18-difluoro-8-{3H-imidazo[2,1-f]purin-3-yl}-17-(4-nitro-1H-1,2,3-benzotriazol-1-yl)-3,12-disulfanyl-2,4,7,11,13,16-hexaoxa-3λ^5,12λ^5-diphosphatricyclo[13.2.1.0^6,10]octadecane-3,12-dione] |
| 46.5 µM | 10 nM | 76.2 µM | 100 nM | – | – | NC(=O)c1cccc2c1nnn2[C@@H]1O[C@@H]2COP(=O)(S)O[C@H]3[C@@H](F)[C@H](n4cnc5c(N)ncnc54)O[C@@H]3COP(=O)(S)O[C@@H]1[C@@H]2F (single isomer, unassigned) [Example 10-2] |
| 5.5 µM | 10 nM | 8 µM | 50 nM | – | – | Nc1ncnc2c1ncn2[C@@H]1O[C@@H]2COP(=O)(S)O[C@@H]3[C@H](O)[C@@H](COP(=O)(S)O[C@H]2[C@H]1F)O[C@H]3n1nnc2c([N+](=O)[O-])cccc21 (single isomer, unassigned) [Example 7-4] |
| > 100 µM | 600 nM | > 100 µM | 12500 nM | – | – | Nc1ncnc2c1ncn2[C@@H]1O[C@@H]2COP(=O)(S)O[C@@H]3[C@H](O)[C@@H](COP(=O)(S)O[C@H]2[C@H]1F)O[C@H]3n1nnc2c(C(F)(F)F)cccc21 (single isomer, unassigned) [Example 9-4] |
| – | 650 nM | – | 4660 nM | > 100 µM | > 100 µM | Nc1ncnc2c1ncn2[C@@H]1O[C@@H]2COP(=O)(O)O[C@@H]3[C@H](O)[C@@H](COP(=O)(S)O[C@H]2[C@H]1F)O[C@H]3n1nnc2c([N+](=O)[O-])cccc21 (stereo partly drawn) [Example 19-1, (1R,6R,8R,9R,10R,15R,17R, 18R)-8-(6-amino-9H-purin-9-yl)-9-fluoro-3,12,18-trihydroxy-17-(4-nitro-1H-1,2,3-benzotriazol-1-yl)-12-sulfanylidene-2,4,7,11,13, 16-hexaoxa-3λ^5,12λ^5-diphos-phatricyclo[13.2.1.0^6,10]octa-decan-3-one] |
| 63.4 µM | 50 nM | 96.8 µM | 1750 nM | – | – | O=[N+]([O-])c1cccc2c1nnn2[C@@H]1O[C@@H]2COP(=O)(S)O[C@H]3[C@@H](F)[C@H](n4cnc5c4ncn4ccnc54)O[C@@H]3COP(=O)(S)O[C@@H]1[C@@H]2O (single isomer, unassigned) [Example 15-2] |
| – | – | – | 1700 nM | > 100 µM | > 100 µM | Nc1ncnc2c1ncn2[C@@H]1O[C@@H]2COP(=O)(O)O[C@@H]3[C@H](O)[C@@H](COP(=O)(O)O[C@H]2[C@H]1O)O[C@H]3n1nnc2c(N)cccc21 [Example 21, (1R,6R,8R,9R,10S,15R,17R,18R)-17-(4-amino-1H-1,2,3-benzotriazol-1-yl)-8-(6-amino-9H-purin-9-yl)-3,9,12,18-tetrahydroxy-2,4,7,11,13,16-hexaoxa-3λ^5,12λ^5-diphosphatricyclo[13.2.1.0^6,10]octadecane-3,12-dione] |
| 5.6 µM | 10 nM | 13 µM | – | – | – | Nc1ncnc2c1ncn2[C@@H]1O[C@@H]2COP(=O)(S)O[C@@H]3[C@H](O)[C@@H](COP(=O)(O)O[C@H]2[C@H]1F)O[C@H]3n1nnc2c([N+](=O)[O-])cccc21 (single isomer, unassigned) [Example 5-2] |
